Results: BindingDB's records for patent US20250313563 (The Broad Institute, 2025)
“And” between values parts separate entries of the source, which are not always exact repeats. Equal entries are not always repeated.

Experiments:
[1] = target: Glycogen synthase kinase-3 alpha (Homo sapiens, UniProt P49840); test: TR-FRET Assay
Description: (§1) The assay was performed in a white, 384 well, low volume, flat bottom plate (Grenier). […] The kinase activity was quenched with 2 μL of 250 mM EDTA. A 10 μL volume of 40 nM Strepavidin-d2, 2 nM Tb2+-pSer641 antibody in TR-FRET Detection Buffer (Invitrogen) was then added.

[2] = target: Glycogen synthase kinase-3 beta (Homo sapiens, UniProt P49841); test: TR-FRET Assay
Description: as §1

Chain of Glycogen synthase kinase-3 beta (P49841 whole entry): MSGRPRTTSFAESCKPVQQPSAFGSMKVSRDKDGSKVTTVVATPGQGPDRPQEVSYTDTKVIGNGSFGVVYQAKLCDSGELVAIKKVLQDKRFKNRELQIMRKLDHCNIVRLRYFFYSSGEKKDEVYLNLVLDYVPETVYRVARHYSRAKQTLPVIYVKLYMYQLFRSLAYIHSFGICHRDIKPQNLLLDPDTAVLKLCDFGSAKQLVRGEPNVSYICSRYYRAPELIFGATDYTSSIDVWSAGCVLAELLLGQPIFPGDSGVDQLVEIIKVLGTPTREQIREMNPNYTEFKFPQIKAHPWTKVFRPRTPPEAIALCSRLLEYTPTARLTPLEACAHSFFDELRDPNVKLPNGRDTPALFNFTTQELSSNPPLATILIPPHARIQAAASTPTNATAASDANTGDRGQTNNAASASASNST
Chain of Glycogen synthase kinase-3 alpha (P49840 whole entry): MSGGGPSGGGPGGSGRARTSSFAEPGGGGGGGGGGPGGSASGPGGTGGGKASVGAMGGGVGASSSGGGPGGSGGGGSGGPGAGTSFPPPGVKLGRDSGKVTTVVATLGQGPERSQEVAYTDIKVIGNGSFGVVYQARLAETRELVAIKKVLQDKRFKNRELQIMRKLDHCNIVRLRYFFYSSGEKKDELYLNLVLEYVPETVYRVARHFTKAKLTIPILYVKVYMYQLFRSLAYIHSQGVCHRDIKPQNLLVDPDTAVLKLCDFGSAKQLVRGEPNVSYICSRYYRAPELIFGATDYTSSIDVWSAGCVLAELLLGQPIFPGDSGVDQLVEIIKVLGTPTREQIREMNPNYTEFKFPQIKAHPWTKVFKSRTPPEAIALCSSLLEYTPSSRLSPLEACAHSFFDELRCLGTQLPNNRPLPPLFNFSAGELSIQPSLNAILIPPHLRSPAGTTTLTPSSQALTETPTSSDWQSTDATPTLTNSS

IC50 [1] | IC50 [2] | Structure (SMILES)
< 100 nM | 100 to 1000 nM | CC1(C)CC(=O)C2=C(C1)NC1=C(CN=N1)[C@@]21COC2(CN(C(=O)C(C)(F)F)C2)C1 [US20250313563, Compound 947839]
< 100 nM | < 100 nM and 100 to 1000 nM | CC[C@]1(c2cccc(-c3c(C)nnn3C)c2)C2=CN=NC2NC2=C1C(=O)CC(C)(C)C2 (stereo partly specified) [US20250313563, Compound 946099]
< 100 nM | 100 to 1000 nM | CC[C@@H]1C[C@]2(CCO1)C1=C(N=NC1)NC1=C2C(=O)CC(C)(C)C1 [US20250313563, Compound 924715]
< 100 nM | 100 to 1000 nM | CCC1(c2cccc(C(F)(F)F)c2)C2=CN=NC2NC2=C1C(=O)N(c1cccnc1)CC2 (stereo unspecified) [US20250313563, Compound 945637]
1000 to 5000 nM | 100 to 1000 nM | Cn1cc(-c2cccc([C@]3(C)C4=C(CC(C)(C)CC4=O)NC4=C3C(CC(C)(C)C)N=N4)c2)cn1 (stereo partly specified) [US20250313563, Compound 126393]
100 to 1000 nM | 100 to 1000 nM | CC[C@]1(c2cccc(C(F)(F)F)c2)C2=CN=NC2NC2=C1C(=O)N(CCOC)CC2 (stereo partly specified) [US20250313563, Compound 949599]
< 100 nM | < 100 nM | CC1(C)CC(=O)C2=C(C1)NC1=C(CN=N1)C21CCN(S(=O)(=O)c2ccc(C(F)(F)F)cn2)CC1 [US20250313563, Compound 947902]
100 to 1000 nM | 100 to 1000 nM | CC1CC(=O)C2=C(C1)NC1=C(CN=N1)C21CCOCC1 (stereo unspecified) [US20250313563, Compound 884112]
> 5000 nM | > 5000 nM | CC[C@]1(c2cccc(-c3cnn(-c4ccccc4)c3F)c2)C2=CN=NC2NC2=C1C(=O)NC(C)(C)C2 (stereo partly specified) [US20250313563, Compound 949519]
1000 to 5000 nM | > 5000 nM | C[C@H]1COCC[C@]12C1=CN=NC1NC1=C2C(=O)CC(C)(C)C1 (stereo partly specified) [US20250313563, Compound 924309]
1000 to 5000 nM | > 5000 nM | CC[C@@]1(c2cccc(C(F)(F)F)c2)C2=CN=NC2NC2=C1C(=O)N(c1cnc(OC)nc1)CC2 (stereo partly specified) [US20250313563, Compound 949127]
< 100 nM | < 100 nM | CCC1(c2cccc(-c3cn(C)nc3C)c2)C2=C(CC(C)(C)NC2=O)NC2N=NC(F)=C21 (stereo unspecified) [US20250313563, Compound 948301]
100 to 1000 nM | 1000 to 5000 nM | CC[C@@]1(c2cccc(-c3cc(C(F)(F)F)nn3C)c2)C2=CN=NC2NC2=C1C(=O)NC(C)(C)C2 (stereo partly specified) [US20250313563, Compound 952018]
100 to 1000 nM | 1000 to 5000 nM | CC[C@]1(c2cccc(-c3ccnc(C)c3F)c2)C2=CN=NC2NC2=C1C(=O)NC(C)(C)C2 (stereo partly specified) [US20250313563, Compound 948311]
> 5000 nM | > 5000 nM | CC[C@]1(c2cccc(N(C)C(=O)c3ccn(C)n3)c2)C2=CN=NC2NC2=C1C(=O)CC(C)(C)C2 (stereo partly specified) [US20250313563, Compound 929455]
100 to 1000 nM | 1000 to 5000 nM | CCC1(c2cccc(N(C)c3ccnn3C)c2)C2=CN=NC2NC2=C1C(=O)CC(C)(C)C2 (stereo unspecified) [US20250313563, Compound 889604]
1000 to 5000 nM | > 5000 nM | CCC1(c2ccccc2)C2=C(N=NC2)NC2=C1C(=O)CCC2 (stereo unspecified) [US20250313563, Compound 789497]
1000 to 5000 nM | > 5000 nM | CC[C@@]1(c2cccc(OCC(F)F)c2)C2=CN=NC2NC2=C1C(=O)CC(C)(C)C2 (stereo partly specified) [US20250313563, Compound 949113]
< 100 nM | 100 to 1000 nM | CCC1(c2cccc(N(C)C(=O)c3cnn(C)c3)c2)C2=CN=NC2NC2=C1C(=O)CC(C)(C)C2 (stereo unspecified) [US20250313563, Compound 912068]
< 100 nM and 100 to 1000 nM | < 100 nM and 100 to 1000 nM | CC1(C)CC(=O)C2=C(C1)NC1=C(CN=N1)[C@]21CCN(S(=O)(=O)C2CCCC2)C1 [US20250313563, Compound 943482]
100 to 1000 nM | 100 to 1000 nM | C[C@H]1CC(=O)C2=C(C1)NC1=C(CN=N1)[C@]2(C)c1ccccc1 [US20250313563, Compound 789332]
< 100 nM | 100 to 1000 nM | Cc1cc(S(=O)(=O)N2CCC3(CC2)C2=C(N=NC2)NC2=C3C(=O)CC(C)(C)C2)c(C)s1 [US20250313563, Compound 945674]
< 100 nM | < 100 nM | CC1(C)CC(=O)C2=C(NC3=C(CN=N3)C23CCCCC3)[C@@H]1F [US20250313563, Compound 951705]
100 to 1000 nM | 100 to 1000 nM | C[C@H]1CC[C@@]2(C1)C1=C(N=NC1)NC1=C2C(=O)CC(C)(C)C1 [US20250313563, Compound 883840]
100 to 1000 nM | 100 to 1000 nM | O=C1CC2(CSC2)CC2=C1C1(CCCC1)C1=CN=NC1N2 (stereo unspecified) [US20250313563, Compound 913441]
100 to 1000 nM | 1000 to 5000 nM | CC[C@@]1(c2cccc(-c3cc[n+](O)cc3[S@@+](C)[O-])c2)C2=CN=NC2NC2=C1C(=O)CC(C)(C)C2 (stereo partly specified) [US20250313563, Compound 947571]
> 5000 nM | > 5000 nM | CC[C@]1(c2cccc(C3=C4CC=C(Cl)C=C4N=CC3)c2)C2=CN=NC2NC2=C1C(=O)NC(C)(C)C2 (stereo partly specified) [US20250313563, Compound 948362]

IC50 [1] | IC50 [2] | Structure (SMILES)
< 100 nM | 100 to 1000 nM | CCC1(c2cccc(-c3ccnc(C(C)O)c3)c2)C2=CN=NC2NC2=C1C(=O)CC(C)(C)C2 (stereo unspecified) [US20250313563, Compound 944029]
100 to 1000 nM | 100 to 1000 nM | CC[C@]1(c2cccc(-c3cn(C)nc3C)c2)C2=C(CC(C)(C)NC2=O)NC2N=NC(C(F)F)=C21 (stereo partly specified) [US20250313563, Compound 950490]
< 100 nM | 100 to 1000 nM | CCC1(c2cccc(-c3ccnc(C)c3OC)c2)C2=CN=NC2NC2=C1C(=O)NC(C)(C)C2 (stereo unspecified) [US20250313563, Compound 948794]
< 100 nM | 100 to 1000 nM | C[C@H]1CC[C@]2(C1)C1=C(N=NC1)NC1=C2C(=O)CC(C)(C)C1 [US20250313563, Compound 897751]
< 100 nM | 100 to 1000 nM | CC[C@]1(c2cccc(C(F)(F)F)c2)C2=C(N=NC2)NC2=C1C(=O)CC2 [US20250313563, Compound 951565]
> 5000 nM | > 5000 nM | CC1(C)CC(=O)C2=C(C1)NC1N=NC(C(F)(F)F)=C1C21CCCOc2ccccc21 (stereo unspecified) [US20250313563, Compound 790632]
< 100 nM | < 100 nM | CC1(C)CC(=O)C2=C(C1)NC1=C(CN=N1)C21CCN(S(=O)(=O)c2ccn(-c3ccccc3)n2)CC1 [US20250313563, Compound 947461]
< 100 nM | < 100 nM | CCC1(c2cccc(N(CC3CCCC3)C(C)=O)c2)C2=CN=NC2NC2=C1C(=O)CC(C)(C)C2 (stereo unspecified) [US20250313563, Compound 912166]
1000 to 5000 nM | 100 to 1000 nM | CN1C[C@]2(C3=C(CC(C)(C)CC3=O)NC3N=NC(CC(C)(C)C)=C32)c2ccccc21 (stereo partly specified) [US20250313563, Compound 125978]
< 100 nM and 100 to 1000 nM | < 100 nM and 1000 to 5000 nM | CC[C@@]1(c2cccc(-c3ccncc3C)c2)C2=CN=NC2NC2=C1C(=O)NC1(CCOCC1)C2 (stereo partly specified) [US20250313563, Compound 948359]
< 100 nM | < 100 nM | CCC1(c2cccc(N(C)c3cccnc3)c2)C2=CN=NC2NC2=C1C(=O)CC(C)(C)C2 (stereo unspecified) [US20250313563, Compound 865168]
< 100 nM | < 100 nM | CC[C@]1(c2cccc(N3CCCCC3)c2)C2=C(CC(C)(C)CC2=O)NC2N=NC(C(F)(F)F)=C21 (stereo partly specified) [US20250313563, Compound 816800]
100 to 1000 nM | 100 to 1000 nM | CCC1(c2cccc(N3CCCCC3)c2)C2=CN=NC2NC2=C1C(=O)CC(C)(C)C2 (stereo unspecified) [US20250313563, Compound 801320]
< 100 nM | < 100 nM | Cc1csc(S(=O)(=O)N2CCC3(CC2)C2=C(N=NC2)NC2=C3C(=O)CC(C)(C)C2)n1 [US20250313563, Compound 947897]
< 100 nM | 1000 to 5000 nM | CCC1(c2cccc(Cc3ncccn3)c2)C2=CN=NC2NC2=C1C(=O)NC(C)(C)C2 (stereo unspecified) [US20250313563, Compound 950151]
100 to 1000 nM | 100 to 1000 nM | CC1(C)CC(=O)C2=C(C1)NC1=C(CN=N1)[C@@]21CCOC(C)(C)C1 [US20250313563, Compound 924299]
> 5000 nM | > 5000 nM | CCN1CC2(C1)C1=C(N=NC1)NC1=C2C(=O)CC(C)(C)C1 [US20250313563, Compound 929448]
< 100 nM | 100 to 1000 nM | CCC1(c2cccc(Nc3ncccn3)c2)C2=CN=NC2NC2=C1C(=O)CC(C)(C)C2 (stereo unspecified) [US20250313563, Compound 913334]
> 5000 nM | > 5000 nM | CC[C@@]1(c2cccc(C(C)C)c2)C2=C(CC(C)(C)NC2=O)NC2N=NC(C)=C21 (stereo partly specified) [US20250313563, Compound 949646]
< 100 nM | 100 to 1000 nM | CCC1(c2cccc(C(F)(F)F)c2)C2=CN=NC2NC2=C1C(=O)N(c1ccccc1)CC2 (stereo unspecified) [US20250313563, Compound 917211]
< 100 nM | < 100 nM | CC[C@@]1(c2cccc(-c3cc(C)ncc3F)c2)C2=C(CC(C)(C)NC2=O)NC2N=NC(C)=C21 (stereo partly specified) [US20250313563, Compound 949338]
< 100 nM and 100 to 1000 nM | < 100 nM and 1000 to 5000 nM | CC[C@]1(c2cccc(-c3ccnn3C)c2)C2=CN=NC2NC2=C1C(=O)NC(C)(C)C2 (stereo partly specified) [US20250313563, Compound 927389]
1000 to 5000 nM | 100 to 1000 nM | CC(C)(C)CC1=C2C(N=N1)NC1=C(C(=O)CC(C)(C)C1)[C@]21CCc2ccc(F)cc21 (stereo partly specified) [US20250313563, Compound 789504]
100 to 1000 nM | 100 to 1000 nM | CC1(C)CC(=O)C2=C(C1)NC1N=NC(C3(C(F)(F)F)CC3)=C1C21CCc2c(F)cccc21 (stereo unspecified) [US20250313563, Compound 810591]
100 to 1000 nM | 100 to 1000 nM | O=C1C2=C(NC3N=NC=C3C23CCOCC3)[C@H]2CC[C@@H]1C2 (stereo partly specified) [US20250313563, Compound 912080]
< 100 nM | < 100 nM | CCC1(c2cccc(-c3cn(C)nc3C)c2)C2=C(CC(C)(C)NC2=O)NC2N=NC(C(F)(F)F)=C21 (stereo unspecified) [US20250313563, Compound 947567]
